Here are results for 16 compounds from US20110118313A1, “IDENTIFICATION OF A MOLECULAR SIGNATURE FOR ANTIPSYCHOTICS AND SERMS” (priority 2008, published 2011).

Data set [1] relates to ARPE-19 cell line. Kind of data set: Gene expression profiling (U133A2.0 microarrays) of drug-treated ARPE-19 cells; antipsychotic signature of lipid homeostasis genes. The format is cell-based, human. Conditions: ARPE-19, 10 μM, 24 hrs; for up-regulation of the top 20 probe sets of the antipsychotic group profile: FIG. 3. The text has this:
The retinal pigment epithelia cell line, ARPE-19/HPV-16, was chosen to establish a database of drug profiles because it is from non-cancerous human origin, with a normal karyotype, and can easily be grown as monolayer in 96-well plates. H4 is a hypertriploid cell line from glioblastoma origin, which was used only for independent replication. Cell lines were propagated according to supplier's specifications (ATCC Manassas, Va.). Compounds were obtained from Sigma (St. Louis, Mo.) or Vanda Pharmaceuticals (Rockville, Md.). Cells were aliquoted to 96-well plates (˜2×10e5 cells/well) and incubated for 24 hrs prior to providing fresh media with a drug, or the drug vehicle (water, dimethyl sulfoxide, ethanol, methanol, or phosphate-buffered saline solution). Drugs were diluted 1000 fold in buffered Advanced D-MEM/F-12 culture medium (Invitrogen, Carlsbad, Calif.) containing non-essential amino acids and 110 mg/L sodium pyruvate. In these conditions, no significant changes of pH were expected, which was confirmed by the monitoring of the pH indicator present in the medium. A final 10 μM drug concentration was chosen because it is believed to fit in the range of physiological relevance, and has been used in other cell line studies (Ferro et al. 2006; Lamb et al. 2006). Microscopic inspection of each well was conducted at the end of the treatment to discard any instance where cells had morphological changes consistent with apoptosis, and to verify that the drug had not precipitated in the culture medium.
Cells were harvested 24 hrs after treatment and RNA extracted using the RNeasy 96 protocol (Qiagen, Valencia, Calif.). Gene expression for 22,238 probe sets of 12,490 genes was generated with U133A2.0 microarrays following the manufacture's instructions (Affymetrix, Santa Clara, Calif.). Antipsychotics were profiled in duplicate or triplicate, with multiple vehicle controls on each plate. A total of 708 microarrays were analysed including 74 for the 18 antipsychotics, 499 for the other 448 compounds, and 135 for vehicle controls.
Each drug treatment-vehicle control pair (treatment instance) was represented by a non-parametric rank-ordered list constructed as follows, similarly to the method described by Lamb and colleagues (Lamb et al. 2006). The raw scan data were first converted to average difference values using MAS 5.0 (Affymetrix). The average difference values of both treatment and control data were set to a minimum threshold of 50 if below 50. For each treatment instance, all probe sets were then ranked based on their amplitude, or level of expression relative to the vehicle control (or average of controls when more than one was used). Amplitude was defined as the ratio of expression (t−v)/[(t+v)/2] where t corresponds to treatment instance and v to vehicle instance.
Each drug group profile was created using our novel Weighted Influence Model, Rank of Ranks (WIMRR) method which underscores the rank of each probe set across the entire gene expression profile rather than the specific change in expression level. WIMRR takes the average rank of each probe set across all of the members of the group and then re-ranks the probe sets from smallest average rank to largest average rank.
A gene-set enrichment metric based on the Kolmogorov-Smirnov (KS) statistic was used in a similar fashion by Lamb and colleagues (Lamb et al. 2006). Specifically, for a given set of probes, the KS score gives a measure of how up (positive) or down (negative) the set of probes occurs within the profile of another treatment instance.

The conditions of data set [2]: 2-3 weeks of antipsychotic treatment, schizophrenic patients; cited from earlier work.
Data set [3] deals with Saccharomyces cerevisiae heterozygotes. Conditions: cited from earlier work.
The test system of data set [4] is mouse striatum. Conditions: cited from earlier work.
The conditions of data set [5]: women affected with schizophrenia; cited from earlier work.
For data set [6] the following is noted: patients; cited from earlier work.
The conditions of data set [7]: patients with bipolar disorder; cited from earlier work.
For data set [8] the following is noted: rats; cited from earlier work.

As for `CCc1c(C)[nH]c2c1C(=O)C(CN1CCOCC1)CC2` (centres unmarked) [Molindone], in data set [1], the “up-regulation of the top 20 probe sets of the antipsychotic group profile” value (shortened to “up-regulation”) was “lowest effect”.
As to `O=C1CCc2ccc(OCCCCN3CCN(c4cccc(Cl)c4Cl)CC3)cc2N1` [aripiprazole], the “plasma levels of certain lipid classes (PE, PC, TG, LY)” value in data set [2] is reported as “minimal effect”.
For the compound `CN(C)CCCN1c2ccccc2Sc2ccc(Cl)cc21` [chlorpromazine], the “effect on genes involved in yeast fatty acid biosynthesis, sterol biosynthesis or phospholipid transport” value (“effect on genes involved” for short) in data set [3] was “strong effect”.
Take `CCN(CC)CCOc1ccc(C(=C(Cl)c2ccccc2)c2ccccc2)cc1` [clomiphene]: the “effect on lipid homeostasis (gene expression signature)” value (“effect on lipid homeostasis” for short) in data set [1] is listed as “alter lipid homeostasis”.
As to `OCCN1CCN(CCCN2c3ccccc3Sc3ccc(C(F)(F)F)cc32)CC1` [fluphenazine], in data set [1], the “up-regulation” value is “stronger up-regulation”.
On to `O=C(CCCN1CCC(O)(c2ccc(Cl)cc2)CC1)c1ccc(F)cc1` [haloperidol], for which the “differential expression of genes involved in lipid metabolism” value in data set [4] is reported as “differential expression of genes involved in lipid metabolism”. Also, the “effect on genes involved” value in data set [3] was “strong effect”.
Consider `COc1cc(C(C)=O)ccc1OCCCN1CCC(c2noc3cc(F)ccc23)CC1` [iloperidone], for which the “up-regulation” value in data set [1] is listed as “stronger up-regulation”.
As for `CN1CCCCC1CCN1c2ccccc2Sc2ccc([S+](C)[O-])cc21` (centres unmarked) [mesoridazine], the “up-regulation” value in data set [1] was “lowest effect”.
Take `C[C@]12CC[C@@H]3c4ccc(O)cc4CC[C@H]3[C@@H]1CC[C@@H]2O` [oestradiol]: in data set [5], the “symptoms of psychosis and cognitive functioning” value is reported as “improve”.
As to `Cc1cc2c(s1)Nc1ccccc1N=C2N1CCN(C)CC1` [olanzapine], in data set [6], the “risk for weight gain and hyperlipidemia” value is recorded as “significant increased risk”.
`OCCN1CCN(CCCN2c3ccccc3Sc3ccc(Cl)cc32)CC1` [perphenazine]: in data set [1], the “up-regulation” value is “stronger up-regulation”.
As for `O=C(c1ccc(OCCN2CCCCC2)cc1)c1c(-c2ccc(O)cc2)sc2cc(O)ccc12` [raloxifene], the “effect on lipid homeostasis” value in data set [1] is “alter lipid homeostasis”.
On to `Cc1nc2n(c(=O)c1CCN1CCC(c3noc4cc(F)ccc34)CC1)CCCC2` [risperidone], for which, in data set [2], the “plasma levels of certain lipid classes (PE, PC, TG, LY)” value is recorded as “significant increases”. Moreover, in data set [6], the “risk for weight gain and hyperlipidemia” value is reported as “much lower risk”. In data set [1], the “effect on lipid homeostasis” value was “share a common gene expression signature”; the “over-expression of RNAs for the desaturase genes FADS1 and FADS2” value is recorded as “over-expression”.
For the compound `CC/C(=C(\c1ccccc1)c1ccc(OCCN(C)C)cc1)c1ccccc1` [tamoxifen], the mania symptoms entry in data set [7] is listed as “reduce mania symptoms”. Besides, the “obesity induced by the antipsychotic sulpiride” value in data set [8] was “prevent obesity”. The “effect on lipid homeostasis” value in data set [1] is reported as “alter lipid homeostasis”.
On to `CN1CCN(CCCN2c3ccccc3Sc3ccc(C(F)(F)F)cc32)CC1` [trifluoperazine], for which, in data set [3], the “effect on genes involved” value is “strong effect”.
As to `O=C1Cc2cc(CCN3CCN(c4nsc5ccccc45)CC3)c(Cl)cc2N1` [ziprasidone], the “risk for weight gain and hyperlipidemia” value in data set [6] is “much lower risk”. The “effect on lipid homeostasis” value in data set [1] is “share a common gene expression signature”.
